Measured values published in patent publication US7947741B2, “Use and administration of bacterial efflux pump inhibitors” (Mpex Pharmaceuticals, Inc., priority 2004, dated 2011).
Read-outs that look alike come from different tables or passages of the source.

How the values were obtained:
[1] = system: outer membrane of P. aeruginosa strain PAM2005; assay: microbe, parasite or virus in culture; conditions: Pseudomonas aeruginosa, read-out: IC50, permeabilization of the outer membrane
[2] = system: P. aeruginosa PAM2281 (MexAB-OprM, MexEF-OprN); assay: microbe, parasite or virus in culture; type: cell-based, Pseudomonas aeruginosa; conditions: PAM2281
Method: (§1) A set of strains that simultaneously over-expressed pairs or triplicates of pumps, e.g. PAM2302 and PAM2303 was tested. Simultaneous over-expression of efflux pumps has been recently detected in clinical strains.

[3] = system: P. aeruginosa PAM1438 (MexAB-OprM, MexCD-OprJ); assay: microbe, parasite or virus in culture; type: cell-based, Pseudomonas aeruginosa; conditions: PAM1438
Method: as §1

[4] = system: P. aeruginosa PAM2302 (MexAB-OprM, MexCD-OprJ, MexEF-OprN); assay: microbe, parasite or virus in culture; type: cell-based, Pseudomonas aeruginosa; conditions: PAM2302
Method: as §1

[5] = system: P. aeruginosa PAM2466 (MexAB-OprM, MexXY-OprM); assay: microbe, parasite or virus in culture; type: cell-based, Pseudomonas aeruginosa; conditions: PAM2466
Method: as §1

[6] = system: P. aeruginosa PAM2282 (MexAB-OprM, MexEF-OprN); assay: microbe, parasite or virus in culture; type: cell-based, Pseudomonas aeruginosa; conditions: PAM2282
Method: as §1

[7] = isethionate salt; cited from earlier work
Pneumocystis carini = conditions: cited from earlier work
[8] = for AUC (0-4)/AUC (0-168) / AUC (0-8)/AUC (0-168) / AUC (0-24)/AUC (0-168) / Ke (β): CF sputum, high dose, Mean; for Ke (β): β phase
[9] = system: 108 recent clinical isolates of P. aeruginosa obtained from cystic fibrosis patients; assay: Susceptibility of cystic fibrosis clinical isolates (broth-micro-dilution, NCCLS); type: cell-based, Pseudomonas aeruginosa; conditions: 108 CF isolates; pentamidine 20 μg/ml
[10] = system: P. aeruginosa PAM1738 (nfxB, overexpressing MexCD-OprJ); assay: microbe, parasite or virus in culture; type: cell-based, Pseudomonas aeruginosa
Method: Stock solutions were further diluted, according to the needs of a particular assay, in Mueller Hinton Broth (MHB). Stock solution was stored at −80° C.
The checkerboard assay was performed in microtiter plates. […] The result of these manipulations is that each well of the microtiter plate contains a unique combination of concentrations of the two agents. The assay was performed in MHB with a final bacterial inoculum of 5×10^5 CFU/ml (from an early-log phase culture). Microtiter plates were incubated during 20 h at 35° C. and were read using a microtiterplate reader (Molecular Devices) at 650 nm as well as visual observation using a microtiter plate reading mirror.
The test organisms used was PAM1020, which is a wild type strain of P. aeruginosa expressing the basal level of MexAB-OprM, as well as PAM1723, PAM1738, and PAM1753, overexpressing the MexAB-OprM, MexCD-OprJ, and MexEF-OprN pump, respectively.

[11] = cited from earlier work
[12] = system: P. aeruginosa PAM1491 (MexEF-OprN; gyrA (Asp87Tyr)); assay: microbe, parasite or virus in culture; type: cell-based, Pseudomonas aeruginosa; conditions: PAM1491
Excerpt: (§2) In addition to increased efflux, resistance to fluoroquinolones may be due to target mutations (gyrase and topoisimerase IV) or due to combination of these two resistance mechanisms in a single bacterial cell.

[13] = system: P. aeruginosa PAM1033 (MexCD-OprJ); assay: microbe, parasite or virus in culture; type: cell-based, Pseudomonas aeruginosa; conditions: PAM1033
Excerpt: as §2

[14] = system: P. aeruginosa PAM1032 (MexAB-OprM); assay: microbe, parasite or virus in culture; type: cell-based, Pseudomonas aeruginosa; conditions: PAM1032
Excerpt: as §2

[15] = system: P. aeruginosa PAM1570 (MexEF-OprN; gyrA (Thr83Ile)); assay: microbe, parasite or virus in culture; type: cell-based, Pseudomonas aeruginosa; conditions: PAM1570
Excerpt: as §2

[16] = system: P. aeruginosa PAM1034 (MexEF-OprN); assay: microbe, parasite or virus in culture; type: cell-based, Pseudomonas aeruginosa; conditions: PAM1034
Excerpt: as §2

[17] = system: P. aeruginosa PAM1482 (MexCD-OprJ; gyrA (Asp87Tyr)); assay: microbe, parasite or virus in culture; type: cell-based, Pseudomonas aeruginosa; conditions: PAM1482
Excerpt: as §2

[18] = system: P. aeruginosa PAM1020 (pump status none; target mutation none); assay: microbe, parasite or virus in culture; type: cell-based, Pseudomonas aeruginosa; conditions: PAM1020
Excerpt: as §2

PAM1723 cells = assay: EtBr uptake (proton gradient disruption); type: cell-based, Pseudomonas aeruginosa; conditions: CCCP 50 μg/ml for 15 minutes, pentamidine 80 μg/ml
Method: A proton gradient is necessary for efflux pump activity. Accordingly, compounds that are capable of proton gradient disruption will appear as efflux inhibitors in accumulation assays. This possibility was tested for pentamidine. EtBr is a substrate of the MexAB-OprM efflux pump from P. aeruginosa as evident from the differential rates of its uptake in PAM 1723 and PAM 1626, MexAB-OprM overexpressing or lacking strains, respectively. CCCP is a well-known protonophore, which rapidly dissipates the proton gradient.

[19] = 24 hours after 300 mg in a jet nebulizer

N=C(N)c1ccc(OCCCCCOc2ccc(C(=N)N)cc2)cc1 [Pentamidine, pentamidine]
IC50 [1]: > 64 µg/mL | Ciprofloxacin MIC w/pentamidine at 20 μg/ml [2]: 0.25 µg/mL | Levofloxacin MIC w/pentamidine at 20 μg/ml [2]: 0.25 µg/mL | Ciprofloxacin MIC w/pentamidine at 20 μg/ml [3]: 0.25 µg/mL | Levofloxacin MIC w/pentamidine at 20 μg/ml [3]: 0.25 µg/mL | Ciprofloxacin MIC w/pentamidine at 20 μg/ml [4]: 0.25 µg/mL | Levofloxacin MIC w/pentamidine at 20 μg/ml [4]: 0.25 µg/mL | Ciprofloxacin MIC w/pentamidine at 20 μg/ml [5]: 0.06 µg/mL | Levofloxacin MIC w/pentamidine at 20 μg/ml [5]: 0.125 µg/mL | Ciprofloxacin MIC w/pentamidine at 20 μg/ml [6]: 0.125 µg/mL | Levofloxacin MIC w/pentamidine at 20 μg/ml [6]: 0.25 µg/mL | solubility [7]: soluble in water and glycerin and insoluble in ether, acetone, and chloroform | In vitro inhibitory activity (Pneumocystis carini): 0.3 µg/mL | AUC (0-4)/AUC (0-168) ([8]; Aerogen Clinical): 46% | AUC (0-8)/AUC (0-168) ([8]; Aerogen Clinical): 61% | AUC (0-24)/AUC (0-168) ([8]; Aerogen Clinical): 77% | Ke (β) ([8]; Aerogen Clinical): 0.070 h⁻¹ | AUC (0-4)/AUC (0-168) ([8]; Respirgard II): 30% | AUC (0-8)/AUC (0-168) ([8]; Respirgard II): 41% | AUC (0-24)/AUC (0-168) ([8]; Respirgard II): 66% | Ke (β) ([8]; Respirgard II): 0.074 h⁻¹ | AUC (0 to 168) ([8]; human, in vivo): 57000 ng·h/mL | AUC (0 to infinity) ([8]; human, in vivo): 57000 ng·h/mL | AUC (0 to last non-BLQ) ([8]; human, in vivo): 56000 ng·h/mL | Tmax (0 to 168) ([8]; human, in vivo): 2.3 h | high-dose β-phase elimination half-life (sputum) ([8]; human, in vivo): between one and two days | decrease of MIC50 of levofloxacin and ciprofloxacin [9]: 8 fold | decrease of MIC90 of levofloxacin and ciprofloxacin [9]: 2 fold | Levofloxacin MIC in the presence of inhibitor ([10]; PAM1738, inhibitor 1.25 μg/ml): 0.5 µg/mL | Levofloxacin MIC in the presence of inhibitor ([10]; PAM1738, inhibitor 2.5 μg/ml): 0.25 µg/mL | Levofloxacin MIC in the presence of inhibitor ([10]; PAM1738, inhibitor 5 μg/ml): 0.25 µg/mL | Levofloxacin MIC in the presence of inhibitor ([10]; PAM1738, inhibitor 10 μg/ml): 0.25 µg/mL | Levofloxacin MIC in the presence of inhibitor ([10]; PAM1738, inhibitor 20 μg/ml): 0.125 µg/mL | Levofloxacin MIC in the presence of inhibitor ([10]; PAM1738, inhibitor 40 μg/ml): 0.03 µg/mL | Levofloxacin MIC in the presence of inhibitor ([10]; PAM1738, inhibitor 80 μg/ml): 0.015 µg/mL | decrease of levofloxacin MIC ([10]; PAM1738, pentamidine at 20 μg/ml): 4 fold | MIC ([10]; Pseudomonas aeruginosa, read-out: MIC* (MIC for the efflux pump inhibitor)): > 80 µg/mL | concentration in bronchial alveolar lavage fluid sediment [11, 19]: 705 ± 242 ng/mL | concentration in bronchial alveolar lavage fluid supernatant [11, 19]: 23.2 ± 7.75 ng/mL | trough plasma concentration ([11]; after 3 weeks of daily administration of 3 mg/kg): 61.1 ± 56.0 ng/mL | Ciprofloxacin MIC w/pentamidine at 20 μg/ml [12]: 1 µg/mL | Levofloxacin MIC w/pentamidine at 20 μg/ml [12]: 2 µg/mL | Ciprofloxacin MIC w/pentamidine at 20 μg/ml [13]: 0.25 µg/mL | Levofloxacin MIC w/pentamidine at 20 μg/ml [13]: 0.25 µg/mL | Ciprofloxacin MIC w/pentamidine at 20 μg/ml [14]: 0.06 µg/mL | Levofloxacin MIC w/pentamidine at 20 μg/ml [14]: 0.125 µg/mL | Ciprofloxacin MIC w/pentamidine at 20 μg/ml [15]: 2 µg/mL | Levofloxacin MIC w/pentamidine at 20 μg/ml [15]: 2 µg/mL | Ciprofloxacin MIC w/pentamidine at 20 μg/ml [16]: 0.06 µg/mL | Levofloxacin MIC w/pentamidine at 20 μg/ml [16]: 0.125 µg/mL | Ciprofloxacin MIC w/pentamidine at 20 μg/ml [17]: 2 µg/mL | Levofloxacin MIC w/pentamidine at 20 μg/ml [17]: 1 µg/mL | Ciprofloxacin MIC w/pentamidine at 20 μg/ml [18]: 0.015 µg/mL | Levofloxacin MIC w/pentamidine at 20 μg/ml [18]: 0.03 µg/mL | EtBr uptake (PAM1723 cells): did not result in increased EtBr uptake
